Experimental data as given in patent US20090203753A1, “7-(2-amino-1-hydroxy-ethyl)-4-hydroxybenzothiazol-2(3H)-one-derivatives as beta2 adrenoreceptor agonists” (AstraZeneca AB, priority 2005, published 2009).

Legend:
[1] = target: T1, β2 receptor (Homo sapiens, UniProt P07550); test: Alternative adrenergic β2 mediated cAMP production in H292 cells (60 minutes with test compound); format: cell-based
T1 construct: endogenous in cells; host or cells: H292 cells
Protocol: Alternative Adrenergic (β2 Mediated cAMP Production
H292 cells were grown in 225 cm2 flasks incubator at 37° C., 5% CO2 in RPMI medium containing, 10% (v/v) FBS (foetal bovine serum) and 2 mM L-glutamine.
Adherent H292 cells were removed from tissue culture flasks by treatment with Accutase™ cell detachment solution for 15 minutes. Flasks were incubated for 15 minutes in a humidified incubator at 37° C., 5% CO2. Detached cells were re-suspended in RPMI media (containing 10% (v/v) FBS and 2 mM L-glutamine) at 0.05×10^6 cells per mL. 5000 cells in 100 μL were added to each well of a tissue-culture-treated 96-well plate and the cells incubated overnight in a humidified incubator at 37° C., 5% CO2. The culture media was removed and cells were washed twice with 100 μL assay buffer and replaced with 50 μL assay buffer (HBSS solution containing 10 mM HEPES pH7.4 and 5 mM glucose). Cells were rested at room temperature for 20 minutes after which time 25 μL of rolipram (1.2 mM made up in assay buffer containing 2.4% (v/v) dimethylsulphoxide) was added. Cells were incubated with rolipram for 10 minutes after which time test compounds were added and the cells were incubated for 60 minutes at room temperature. The final rolipram concentration in the assay was 300 μM and final vehicle concentration was 1.6% (v/v) dimethylsulphoxide. The reaction was stopped by removing supernatants, washing once with 100 μL assay buffer and replacing with 50 μL lysis buffer. The cell monolayer was frozen at −80° C. for 30 minutes (or overnight).
The concentration of cAMP (cyclic adenosine monophosphate) in the cell lysate was determined using AlphaScreen™ methodology. The frozen cell plate was thawed for 20 minutes on a plate shaker then 10 μL of the cell lysate was transferred to a 96-well white plate. 40 μL of mixed AlphaScreen™ detection beads pre-incubated with biotinylated cAMP, was added to each well and the plate incubated at room temperature for 10 hours in the dark. The AlphaScreen™ signal was measured using an EnVision spectrophotometer (Perkin-Elmer Inc.) with the recommended manufacturer's settings. cAMP concentrations were determined by reference to a calibration curve determined in the same experiment using standard cAMP concentrations. Concentration response curves for agonists were constructed and data was fitted to a four parameter logistic equation to determine both the pEC50 and Intrinsic Activity. […]

[2] = target: T2, recombinant human α1D receptor (Homo sapiens, UniProt P25100); test: Adrenergic α1D selectivity assay, [3H]-prazosin binding to HEK293 membranes; conditions: read-out: α1 bind pIC50 (converted)
T2 construct: expressed in transfected cells; host or cells: HEK293
T2 sequence (P25100 1-572): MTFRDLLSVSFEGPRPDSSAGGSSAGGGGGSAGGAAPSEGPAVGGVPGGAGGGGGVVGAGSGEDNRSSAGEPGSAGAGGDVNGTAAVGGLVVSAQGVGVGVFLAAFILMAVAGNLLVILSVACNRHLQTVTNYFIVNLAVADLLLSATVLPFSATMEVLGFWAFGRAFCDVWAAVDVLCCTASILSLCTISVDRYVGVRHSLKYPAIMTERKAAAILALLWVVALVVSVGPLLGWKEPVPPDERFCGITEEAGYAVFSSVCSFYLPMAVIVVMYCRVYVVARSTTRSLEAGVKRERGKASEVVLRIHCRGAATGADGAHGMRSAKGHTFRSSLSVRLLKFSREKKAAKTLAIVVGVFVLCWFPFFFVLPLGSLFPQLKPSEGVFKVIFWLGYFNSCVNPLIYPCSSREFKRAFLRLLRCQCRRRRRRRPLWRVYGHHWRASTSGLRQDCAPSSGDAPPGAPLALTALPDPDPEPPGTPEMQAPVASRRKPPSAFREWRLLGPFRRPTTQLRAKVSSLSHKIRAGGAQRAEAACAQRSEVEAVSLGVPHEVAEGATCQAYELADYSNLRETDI
Protocol: Membranes were prepared from human embryonic kidney 293 (HEK293) cells expressing recombinant human α1D receptor. These were diluted in Assay Buffer (50 mM HEPES, 1 mM EDTA, 0.1% gelatin, pH 7.4) to provide a final concentration of membranes that gave a clear window between maximum and minimum specific binding.
(§1) Assays were performed in U-bottomed 96-well polypropylene plates. 10 μL [^3H]-prazosin (0.3 nM final concentration) and 10 μL of test compound (10× final concentration) were added to each test well. For each assay plate 8 replicates were obtained for [^3H]-prazosin binding in the presence of 10 μL vehicle (10% (v/v) DMSO in Assay Buffer; defining maximum binding) or 10 μL BMY7378 (10 μM final concentration; defining non-specific binding (NSB)). Membranes were then added to achieve a final volume of 100 μL. The plates were incubated for 2 hours at room temperature and then filtered onto PEI coated GF/B filter plates, pre-soaked for 1 hour in Assay Buffer, using a 96-well plate Tomtec cell harvester. Five washes with 250 μL wash buffer (50 mM HEPES, 1 mM EDTA, pH 7.4) were performed at 4° C. to remove unbound radioactivity. The plates were dried then sealed from underneath using Packard plate sealers and MicroScint-O (50 μL) was added to each well. The plates were sealed (TopSeal A) and filter-bound radioactivity was measured with a scintillation counter (TopCount, Packard BioScience) using a 3-minute counting protocol.
(§2) Total specific binding (B0) was determined by subtracting the mean NSB from the mean maximum binding. NSB values were also subtracted from values from all other wells.

[3] = target: T3, recombinant human adrenergic beta 1 receptors (Homo sapiens, UniProt P08588); test: Adrenergic β1 selectivity assay, [125I]-Iodocyanopindolol binding to membranes; conditions: inhibition of [125I]-Iodocyanopindolol binding (0.036 nM); read-out: β1 bind pIC50 (converted)
T3 construct: purchased Euroscreen
T3 sequence (P08588 whole entry): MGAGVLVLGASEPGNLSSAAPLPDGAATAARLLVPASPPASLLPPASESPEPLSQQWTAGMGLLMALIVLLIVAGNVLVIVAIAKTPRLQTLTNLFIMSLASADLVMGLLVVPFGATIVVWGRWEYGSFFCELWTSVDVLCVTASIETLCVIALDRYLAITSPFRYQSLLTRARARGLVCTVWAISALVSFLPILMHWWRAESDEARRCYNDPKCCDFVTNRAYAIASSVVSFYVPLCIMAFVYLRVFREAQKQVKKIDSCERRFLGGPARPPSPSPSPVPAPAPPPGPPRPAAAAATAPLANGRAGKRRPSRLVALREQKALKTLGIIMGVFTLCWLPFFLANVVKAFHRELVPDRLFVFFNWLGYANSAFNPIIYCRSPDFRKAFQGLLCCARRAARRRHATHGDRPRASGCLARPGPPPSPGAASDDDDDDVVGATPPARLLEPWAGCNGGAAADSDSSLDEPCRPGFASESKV
Protocol: (§3) Membranes containing recombinant human adrenergic beta 1 receptors were obtained from Euroscreen. These were diluted in Assay Buffer (50 mM HEPES, 1 mM EDTA, 120 mM NaCl, 0.1% gelatin, pH 7.4) to provide a final concentration of membranes that gave a clear window between maximum and minimum specific binding.
as §1, with “[^125I]-Iodocyanopindolol (0.036” for “[^3H]-prazosin (0.3”, “[^125I]-Iodocyanopindolol” for “[^3H]-prazosin”, “Propranolol” for “BMY7378”, “EDTA, 120 mM NaCl,” for “EDTA,”
as §2

[4] = target: T4, recombinant human Dopamine Subtype D2s receptors (Homo sapiens, UniProt P14416); test: Dopamine D2 selectivity assay, [3H]-spiperone binding to membranes; conditions: read-out: D2 bind pIC50 (converted)
T4 construct: purchased Perkin Elmer
T4 sequence (P14416 1-414 isoform P14416-2): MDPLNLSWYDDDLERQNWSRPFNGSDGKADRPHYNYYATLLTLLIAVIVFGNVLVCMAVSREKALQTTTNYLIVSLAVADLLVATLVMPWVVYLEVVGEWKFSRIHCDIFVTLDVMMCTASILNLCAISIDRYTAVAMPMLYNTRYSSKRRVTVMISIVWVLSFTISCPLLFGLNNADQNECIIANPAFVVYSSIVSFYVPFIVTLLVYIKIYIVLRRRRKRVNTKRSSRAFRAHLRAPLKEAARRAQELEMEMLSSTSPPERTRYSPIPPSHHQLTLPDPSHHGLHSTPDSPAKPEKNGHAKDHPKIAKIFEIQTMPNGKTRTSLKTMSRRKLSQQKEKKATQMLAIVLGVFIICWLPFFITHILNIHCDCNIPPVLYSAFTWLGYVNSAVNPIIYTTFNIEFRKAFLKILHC
Protocol: as §3, with “human Dopamine Subtype D2s” for “human adrenergic beta 1”, “from Perkin Elmer.” for “from Euroscreen.”, “[…]” for “1 mM”
Assays were performed in U-bottomed 96-well polypropylene plates. 30 μL [^3H]-spiperone (0.16 nM final concentration) and 30 μL of test compound (10× final concentration) were added to each test well. For each assay plate 8 replicates were obtained for [^3H]-spiperone binding in the presence of 30 μL vehicle (10% (v/v) DMSO in Assay Buffer; defining maximum binding) or 30 μL Haloperidol (10 μM final concentration; defining non-specific binding (NSB)). Membranes were then added to achieve a final volume of 300 μL. The plates were incubated for 2 hours at room temperature and then filtered onto PEI coated GF/B filter plates, pre-soaked for 1 hour in Assay Buffer, using a 96-well plate Tomtec cell harvester. Five washes with 250 μL wash buffer (50 mM HEPES, 1 mM EDTA, 120 mM NaCl, pH 7.4) were performed at 4° C. to remove unbound radioactivity. The plates were dried then sealed from underneath using Packard plate sealers and MicroScint-O (50 μL) was added to each well. The plates were sealed (TopSeal A) and filter-bound radioactivity was measured with a scintillation counter (TopCount, Packard BioScience) using a 3-minute counting protocol.
as §2

T1 sequence (P07550 whole entry): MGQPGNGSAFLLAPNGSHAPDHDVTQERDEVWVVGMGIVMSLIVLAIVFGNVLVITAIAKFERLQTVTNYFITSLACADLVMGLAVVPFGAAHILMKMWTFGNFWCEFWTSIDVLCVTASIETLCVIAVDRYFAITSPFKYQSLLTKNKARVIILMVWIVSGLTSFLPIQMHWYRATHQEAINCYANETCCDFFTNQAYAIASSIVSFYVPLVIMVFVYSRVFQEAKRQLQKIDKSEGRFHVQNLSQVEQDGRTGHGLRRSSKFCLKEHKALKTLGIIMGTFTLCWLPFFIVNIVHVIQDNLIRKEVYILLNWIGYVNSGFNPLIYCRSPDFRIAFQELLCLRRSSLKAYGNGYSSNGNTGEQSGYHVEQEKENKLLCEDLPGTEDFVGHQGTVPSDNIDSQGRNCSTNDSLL

EC50 ([1]; cAMP, 60 minutes incubation with compound, 300 μM rolipram, read-out: β2 pEC50 (converted)): 3.98 nM | β2 Int Act ([1]; fraction relative to the maximum activity determined for formoterol, 60 minutes incubation): 0.9 | IC50 [2]: 2000 nM | IC50 [3]: 1580 nM | IC50 [4]: > 10000 nM
SMILES: CCN(CC)CCN(CCNC[C@H](O)c1ccc(O)c2[nH]c(=O)sc12)C(=O)CCOCCc1cccc(Cl)c1 [Example 9, 3-[2-(3-Chlorophenyl)ethoxy]-N-[2-(diethylamino)ethyl]-N-(2-{[(2R)-2-hydroxy-2-(4-hydroxy-2-oxo-2,3-dihydro-1,3-benzothiazol-7-yl)ethyl]amino}ethyl)propanamide]
